In US20240246960A1 (adMare Therapeutics Society, priority 2021, published 2024):
One block for each compound: values may come before it.

How the values were obtained:
[1] = Pharmacokinetic study in rats (IV, PO); format: in vivo, Sprague-Dawley rats; conditions: Table B, Rat Plasma; for AUC(0-t) / half-life / AUC(0-inf) / Cmax: male, Sprague-Dawley; for AUC(0-inf): read-out: AUCINF—obs; for Cmax: read-out: Cmax (5 min)
Description: Pharmacokinetic studies were conducted to estimate plasma concentrations obtained after oral gavage (PO) and intravenous (IV) single administration of compounds administered to male Sprague-Dawley rats. Six (6) rats were administered for each compound, route and dose, and plasma was collected at 12 timepoints over a 24 hr period for IV, and 12 timepoints over a 48 hr period for PO. Note that plasma was collected from only 3 animals per timepoint (n=3 for timepoints up to 10 hours, and n=3 for timepoints from 16 h to end of study). Dosing volumes were 5 mL/kg for IV and 10 mL/kg for PO gavage. IV compounds for administration were in solutions, whereas PO compounds were in solution or suspension.
(§1) The in-vivo study plasma samples were analyzed using Ultra Performance Liquid Chromatography (UPLC) with tandem mass spectrometry (MS/MS) detection in multiple reaction monitoring (MRM) mode. A generic bioanalytical method involving plasma sample extraction and cleanup by protein precipitation with acetonitrile was used followed by UPLC-MS/MS analysis.
(§2) A brief example of a generic bioanalytical UPLC-MS/MS method used for analysis of compounds in the in-vivo study plasma samples is as follows. Plasma samples were spiked with internal standard prior to extraction and cleanup by protein precipitation with ice cold acetonitrile containing 0.1% (v/v) ammonium hydroxide at a ratio of 3:1 (solvent:plasma) and centrifuged at 18213 rcf for 15 minutes at 4° C. to pellet precipitates. Aliquots of supernatants were transferred to a 96-well plate and evaporated to dryness at 40° C. under a stream of nitrogen gas. Samples were reconstituted in 50:50 acetonitrile/10 mM ammonium acetate buffer pH 8, mixed thoroughly and analyzed using Ultra Performance Liquid Chromatography (UPLC) with tandem mass spectrometry (MS/MS) detection in multiple reaction monitoring (MRM) mode. Matrix-matched calibration standards and quality control (QC) samples were prepared in naïve C57Bl/6 mouse plasma. The UPLC column used was Waters Acquity UPLC BEH C18 1.7 um, 2.1 mm×50 mm (with guard column). The UPLC mobile phase consisted of: Mobile phase A: 10 mM ammonium acetate in Water pH 8, and Mobile phase B: Acetonitrile. Separation was accomplished with a linear gradient of 5% mobile phase B to 95% mobile phase B in 2 min, and a flow rate of 0.35 mL/min. The MS/MS data acquisition was accomplished using 3 MRM Transitions in ESI+ mode. Parent ion mass 508.37 m/z-to-Daughter ions (m/z) 117.05, 232.13 and 270.22. The quantitation of concentrations in test samples was achieved by matrix-matched calibration with normalization using an internal standard. Data acquisition and analysis were performed using Waters MassLynx software with TargetLynx application manager.
(§3) Estimation of PK parameters was performed using independent noncompartmental model method by PHOENIX WinNonlin software.

[2] = Pharmacokinetic study in dogs (IV, PO); format: in vivo, Beagle dogs; conditions: Table C, Dog Plasma; for AUC(0-t) / Cmax at 5 min / half-life / AUC(0-inf): male, Beagle; for AUC(0-inf): read-out: AUCINF—obs
Description: Pharmacokinetic studies were conducted to estimate plasma concentrations obtained after oral gavage (PO) and intravenous (IV) single administration of compounds administered to separate groups of male Beagle dogs. Three (3) dogs were administered a compound via the intravenous (IV) route at 3 mg/kg and 2.5 mL/kg, and plasma was collected at 12 timepoints over a 24-hour period. Following a 7 days washout period, the same dogs were administered the same compound via PO at 10 mg/kg and 5 mL/kg, and plasma was collected at 12 timepoints over a 48-hour period.
as §1, §2, §3

[3] = Pharmacokinetic study in mice (IV, PO); format: in vivo, mice (C57BL/6); conditions: Mouse Plasma; for AUC(0-t) / half-life / AUC(0-inf) / Cmax / Cmax at 5 min: female, C57BL/6; for AUC(0-inf): read-out: AUCINF—obs; for Cmax: read-out: Cmax (5 min)
Description: Pharmacokinetic analysis of compounds was conducted following bolus intravenous (IV) or bolus oral (PO) gavage in mice. Female mice (C57BL/6) in the 17-26 g range were weighed, and then administered an individually prescribed dose volume based on body weight of formulated compound via the intravenous (IV; tail vein) or oral gavage (PO) route (IV 5 mL/kg; PO 10 mL/kg). At selected timepoints post administration, blood was collected into vials with anticoagulant, processed for plasma by centrifugation, and then kept frozen ([…]) until analysis.
as §1, §2, §3

AUC—%Extrap—obs ([1]; IV, 3 mg/kg): 0.48% | Cl_obs ([1]; IV, 3 mg/kg): 50.8342 mL/min/kg | Vz_obs ([1]; IV, 3 mg/kg): 4.33451 L/kg | AUC—%Extrap—obs ([1]; PO, 3 mg/kg): 16.96% | Cl_obs ([1]; PO, 3 mg/kg): 252.6873 mL/min/kg | F ([1]; PO, 3 mg/kg): 17% | Vz_obs ([1]; PO, 3 mg/kg): 85.17336 L/kg | AUC—%Extrap—obs ([1]; PO, 10 mg/kg): 19.45% | Cl_obs ([1]; PO, 10 mg/kg): 92.7505 mL/min/kg | F ([1]; PO, 10 mg/kg): 44% | Vz_obs ([1]; PO, 10 mg/kg): 34.17323 L/kg | AUC—%Extrap—obs ([1]; PO, 30 mg/kg): 28.47% | Cl_obs ([1]; PO, 30 mg/kg): 43.6063 mL/min/kg | F ([1]; PO, 30 mg/kg): 84% | Vz_obs ([1]; PO, 30 mg/kg): 19.76577 L/kg | AUC(0-t) ([1]; IV, 3 mg/kg): 979 ng·h/mL | half-life ([1]; IV, 3 mg/kg): 0.99 h | AUC(0-inf) ([1]; IV, 3 mg/kg): 984 ng·h/mL | Cmax ([1]; IV, 3 mg/kg): 1490 ng/mL | AUC(0-t) ([1]; PO, 3 mg/kg): 164 ng·h/mL | half-life ([1]; PO, 3 mg/kg): 3.89 h | AUC(0-inf) ([1]; PO, 3 mg/kg): 198 ng·h/mL | Cmax ([1]; PO, 3 mg/kg): 32.2 ng/mL | AUC(0-t) ([1]; PO, 10 mg/kg): 1450 ng·h/mL | half-life ([1]; PO, 10 mg/kg): 4.26 h | AUC(0-inf) ([1]; PO, 10 mg/kg): 1800 ng·h/mL | Cmax ([1]; PO, 10 mg/kg): 396 ng/mL | AUC(0-t) ([1]; PO, 30 mg/kg): 8200 ng·h/mL | half-life ([1]; PO, 30 mg/kg): 5.24 h | AUC(0-inf) ([1]; PO, 30 mg/kg): 11500 ng·h/mL | Cmax ([1]; PO, 30 mg/kg): 1570 ng/mL | AUC—%Extrap—obs ([2]; IV, 3 mg/kg): 2.17% | Cl_obs ([2]; IV, 3 mg/kg): 10.237 mL/min/kg | Vz_obs ([2]; IV, 3 mg/kg): 4.4105 L/kg | AUC—%Extrap—obs ([2]; PO, 10 mg/kg): 0.29% | Cl_obs ([2]; PO, 10 mg/kg): 10.148 mL/min/kg | F ([2]; PO, 10 mg/kg): 108% | Vz_obs ([2]; PO, 10 mg/kg): 5.13768 L/kg | AUC(0-t) ([2]; IV, 3 mg/kg): 4940 ng·h/mL | Cmax at 5 min ([2]; IV, 3 mg/kg): 2470 ng/mL | half-life ([2]; IV, 3 mg/kg): 5.2 h | AUC(0-inf) ([2]; IV, 3 mg/kg): 5070 ng·h/mL | AUC(0-t) ([2]; PO, 10 mg/kg): 17800 ng·h/mL | Cmax at 5 min ([2]; PO, 10 mg/kg): 2970 ng/mL | half-life ([2]; PO, 10 mg/kg): 6.03 h | AUC(0-inf) ([2]; PO, 10 mg/kg): 17800 ng·h/mL | AUC—%Extrap—obs ([3]; Table A, IV, 3 mg/kg): 0.73% | Cl_obs ([3]; Table A, IV, 3 mg/kg): 21.2632 mL/min/kg | Vz_obs ([3]; Table A, IV, 3 mg/kg): 3.93714 L/kg | AUC—%Extrap—obs ([3]; Table A, PO, 10 mg/kg): 6.92% | Cl_obs ([3]; Table A, PO, 10 mg/kg): 32.236 mL/min/kg | F ([3]; Table A, PO, 10 mg/kg): 62% | Vz_obs ([3]; Table A, PO, 10 mg/kg): 9.80258 L/kg | AUC(0-t) ([3]; Table A, IV, 3 mg/kg): 2330 ng·h/mL | half-life ([3]; Table A, IV, 3 mg/kg): 2.14 h | AUC(0-inf) ([3]; Table A, IV, 3 mg/kg): 2350 ng·h/mL | Cmax ([3]; Table A, IV, 3 mg/kg): 3660 ng/mL | AUC(0-t) ([3]; Table A, PO, 10 mg/kg): 4810 ng·h/mL | half-life ([3]; Table A, PO, 10 mg/kg): 3.51 h | AUC(0-inf) ([3]; Table A, PO, 10 mg/kg): 5170 ng·h/mL | Cmax ([3]; Table A, PO, 10 mg/kg): 2380 ng/mL
Compound: O=C(N[C@H]1CC[C@@H](Oc2nc(N3CCOCC3)cc3ncccc23)CC1)c1ncccn1 [Compound 123, N-((1s,4s)-4-((7-Morpholino-1,6-naphthyridin-5-yl)oxy)cyclohexyl)pyrimidine-2-carboxamide]

AUC—%Extrap—obs ([3]; Table D, IV, 3 mg/kg): 0.91% | Cl_obs ([3]; Table D, IV, 3 mg/kg): 34.092 mL/min/kg | Vz_obs ([3]; Table D, IV, 3 mg/kg): 3.32052 L/kg | AUC—%Extrap—obs ([3]; Table D, PO, 10 mg/kg): 0.39% | Cl_obs ([3]; Table D, PO, 10 mg/kg): 77.5327 mL/min/kg | F ([3]; Table D, PO, 10 mg/kg): 44% | Vz_obs ([3]; Table D, PO, 10 mg/kg): 18.51427 L/kg | AUC(0-t) ([3]; Table D, IV, 3 mg/kg): 1450 ng·h/mL | Cmax at 5 min ([3]; Table D, IV, 3 mg/kg): 2020 ng/mL | half-life ([3]; Table D, IV, 3 mg/kg): 1.13 h | AUC(0-inf) ([3]; Table D, IV, 3 mg/kg): 1470 ng·h/mL | AUC(0-t) ([3]; Table D, PO, 10 mg/kg): 2140 ng·h/mL | Cmax at 5 min ([3]; Table D, PO, 10 mg/kg): 1240 ng/mL | half-life ([3]; Table D, PO, 10 mg/kg): 2.76 h | AUC(0-inf) ([3]; Table D, PO, 10 mg/kg): 2150 ng·h/mL
Compound: O=C(N[C@H]1CC[C@@H](Oc2nc(N3CCOCC3)cc3ncccc23)CC1)c1cc[nH]c1 [Compound 140, N-((1s,4s)-4-((7-morpholino-1,6-naphthyridin-5-yl)oxy)cyclohexyl)-1H-pyrrole-3-carboxamide]
